Measurements published in PMC6257627, “Target Validation and Identification of Novel Boronate Inhibitors of the Plasmodium falciparum Proteasome” (Journal of Medicinal Chemistry, 2018).
Values joined by “and” are separate entries in the source; they are usually repeats but may differ in a detail not shown here. Equal values may be shown once.

Key:
[1] = system: P. falciparum proteasome activity in cells (GFP-DD transfectants); assay: GFP-DD reporter degradation in transfectants (Western blot, flow cytometry); type: cell-based; conditions: trophozoites, 3 h exposure
Description: (§1) Figure 1 Structures, proteasome inhibition, and isobologram analysis of selected compounds. (A) Structures of MPI-1, MPI-2, MPI-3, and MPI-4 (compounds 1–4). (B) GFP-DD transfectants were maintained in Shield-1 for 24 h before wash-out prior to setting up experiments. Trophozoites were re-exposed to Shield-1 or exposed to indicated compounds for 3 h. Results are representative of four independent experiments. (i) Cell extracts were analyzed by Western blot using anti-GFP or anti-PfBiP as a loading control. (ii) GFP fluorescence measured by flow cytometry. Dotted line represents background (fluorescence of sample after washout of Shield-1). Data are the mean ± range/2 for the readings in technical duplicate from one experiment. Curves are fitted with the sigmoidal four-parameter model. (C) Isobologram analysis of the interaction of test compounds and DHA. Cam3.II (DHA resistant) parasites at very early ring stages were subjected to 3 h pulses in the presence of different combinations of DHA and test compounds. […]
Trophozoite-stage parasite cultures (GFP-DD parasites) at 5% hematocrit and 5% parasitemia were subjected to the drug treatment indicated in the figure legends at 37 °C. […] Syto-61 and GFP fluorescence was recorded using the FACSCanto II cytometer (Becton Dickinson). […] Parasites were gated based on parasite GFP fluorescence, and values reported are mean fluorescence. […]

[2] = system: Cam3.II^R539T early ring stages; assay: Isobologram analysis of interaction with DHA, 3 h pulse; type: cell-based, P. falciparum; conditions: early ring stages of K13 mutant Cam3.II^R539T, 3 h pulses
Description: as §1, with “experiment.” for “experiment. Curves are fitted with the sigmoidal four-parameter model. (C) Isobologram analysis of the interaction of test compounds and DHA. Cam3.II (DHA resistant) parasites at very early ring stages were subjected to 3 h pulses in the presence of different combinations of DHA and test compounds.”
For standard assays of antiplasmodial activity, sorbitol-treated ring stage parasites were incubated with the drugs for 72 h and viability was assessed in the second cycle.[12] […] Cells were then stained with 2 μM Syto-61 (Thermo Fisher Scientific), and their fluorescence was measured by flow cytometry (FACSCanto II cytometer; Becton Dickinson). Data were gated and analyzed using FCS Express software (version 3) to determine parasitemia of each sample. […] Interactions between DHA and MPI-1 or MPI-4 against the K13 mutant (DHA resistant) Cam3.II P. falciparum strain, exposed to a 3 h pulsed treatment, were determined at 4 h after invasion as described previously.[12]

Pf20S β5 = Pf20S β5 (Plasmodium falciparum, UniProt A0A5K1K7U1+Q8IJT1); assay: Kinetic analysis, Pf20S β5 (Ac-WLA-AMC); type: biochemical, P. falciparum; conditions: Figure S3D
Description: (§2) Figure S 3. Kinetic analysis of MPI -4 against Pf20S and human constitutive 20S proteasome.
(§3) The association rate K on, half -life t 1/2 and equilibrium constant Ki for MPI -4 against human constitutive 20S (A, B) and Pf20S (C, D). 20S β2 (A, C) and β5 (B, D) activities were determined using fluorogenic substrates, Ac -RQR-AMC (human) or Ac -WLR-AMC ( P. falciparum ) and Ac - […]

[3] = molecular target: T1, human constitutive 20S proteasome β5c (Homo sapiens, UniProt P20618+P28074); assay: Kinetic analysis, human constitutive 20S β5 (Ac-WLA-AMC); type: biochemical; conditions: Figure S3B
T1 construct: Residue positions are calculated at the start of the processed protein, and the first residue (Thr 1)
Description: as §2, §3

[4] = molecular target: human constitutive 20S proteasome β2c (Homo sapiens, UniProt P49720+Q99436); assay: Kinetic analysis, human constitutive 20S β2 (Ac-RQR-AMC); type: biochemical; conditions: Figure S3A
Description: as §2, §3

Pf20S β2 = Pf20S β2 (Plasmodium falciparum, UniProt Q8I261+Q8I6T3); assay: Kinetic analysis, Pf20S β2 (Ac-WLR-AMC); type: biochemical, P. falciparum; conditions: Figure S3C
Description: as §2, §3

[5] = system: Cam3.II^R539T early ring stages; design: method as in PMID 25901609; conditions: P. falciparum in culture; cited from earlier work
3D7 B2a = assay: 72 h viability assay, bortezomib-resistant clone B2a; type: cell-based, Plasmodium falciparum; conditions: mean ± SEM, n=3
Description: For standard assays of antiplasmodial activity, sorbitol-treated ring stage parasites were incubated with the drugs for 72 h and viability was assessed in the second cycle.[12] Drug pulse assays were performed as described previously.[47] For short pulse assays, tightly synchronized early ring stage parasites (1–3 h after invasion) at 0.2% hematocrit and 1–2% parasitemia were subjected to 3 h drug pulse at 37 °C and returned to culture until parasites reached trophozoite stage of the following cycle. Cells were then stained with 2 μM Syto-61 (Thermo Fisher Scientific), and their fluorescence was measured by flow cytometry (FACSCanto II cytometer; Becton Dickinson). Data were gated and analyzed using FCS Express software (version 3) to determine parasitemia of each sample. Viability represents the parasitemia normalized to untreated and “kill treated” controls, where “kill treated” refers to samples treated with 2 μM DHA for 48–72 h. Interactions between DHA and MPI-1 or MPI-4 against the K13 mutant (DHA resistant) Cam3.II P. falciparum strain, exposed to a 3 h pulsed treatment, were determined at 4 h after invasion as described previously.[12]
Prior to selection, an aliquot of the parental line was stocked as a reference for subsequent whole genome sequencing analysis. […] Paired-end reads were either aligned to the P. falciparum 3D7 reference genome (PlasmoDB version 13.0).

Pf20S β2, sequence (Q8I6T3 entry or part of it): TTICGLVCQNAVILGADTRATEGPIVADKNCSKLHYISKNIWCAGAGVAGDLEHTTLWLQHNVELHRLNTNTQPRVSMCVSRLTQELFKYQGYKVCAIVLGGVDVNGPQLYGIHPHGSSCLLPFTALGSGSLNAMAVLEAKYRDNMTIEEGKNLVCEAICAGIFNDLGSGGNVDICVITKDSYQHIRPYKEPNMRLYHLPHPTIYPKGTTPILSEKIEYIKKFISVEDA
Pf20S β2, sequence (Q8I261 entry or part of it): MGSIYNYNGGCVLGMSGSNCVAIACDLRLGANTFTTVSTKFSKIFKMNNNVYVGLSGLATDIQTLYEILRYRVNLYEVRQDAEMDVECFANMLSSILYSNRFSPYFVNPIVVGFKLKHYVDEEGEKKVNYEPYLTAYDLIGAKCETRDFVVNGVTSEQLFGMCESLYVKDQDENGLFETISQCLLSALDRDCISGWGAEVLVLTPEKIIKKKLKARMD
Pf20S β5, sequence (Q8IJT1 entry or part of it): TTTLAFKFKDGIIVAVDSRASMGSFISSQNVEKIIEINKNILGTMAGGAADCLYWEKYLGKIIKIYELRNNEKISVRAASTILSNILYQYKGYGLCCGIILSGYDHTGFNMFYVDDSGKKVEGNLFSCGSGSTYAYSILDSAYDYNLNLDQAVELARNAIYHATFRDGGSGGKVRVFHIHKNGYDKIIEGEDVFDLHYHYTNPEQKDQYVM
Pf20S β5, sequence (A0A5K1K7U1 entry or part of it): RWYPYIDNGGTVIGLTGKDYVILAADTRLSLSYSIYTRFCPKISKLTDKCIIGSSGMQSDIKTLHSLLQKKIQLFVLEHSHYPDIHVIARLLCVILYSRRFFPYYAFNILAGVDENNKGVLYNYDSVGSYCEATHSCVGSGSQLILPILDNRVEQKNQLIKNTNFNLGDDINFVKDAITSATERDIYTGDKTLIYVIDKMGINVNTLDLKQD

Row | SMILES | inhibition of GFP-DD degradation in the absence of Shield-1 [1] | interaction with DHA [2] | koff (Pf20S β5; read-out: Koff, Pf 20S β5) [s⁻¹] | kon (Pf20S β5; read-out: association rate Kon, Pf 20S β5) [M⁻¹ s⁻¹] | Ki (Pf20S β5; equilibrium constant, read-out: Ki, P. falciparum β5) [nM] | koff ([3]; read-out: Koff, h20S β5) [s⁻¹] | kon ([3]; read-out: association rate Kon, h20S β5) [M⁻¹ s⁻¹] | Ki ([3]; equilibrium constant) [nM] | koff ([4]; read-out: Koff, h20S β2) [s⁻¹] | kon ([4]; read-out: association rate Kon, h20S β2) [M⁻¹ s⁻¹] | Ki ([4]; equilibrium constant) | koff (Pf20S β2; read-out: Koff, Pf 20S β2) [s⁻¹] | kon (Pf20S β2; read-out: association rate Kon, Pf 20S β2) [M⁻¹ s⁻¹] | Ki (Pf20S β2; equilibrium constant, read-out: Ki, P. falciparum β2) [nM] | interaction with DHA (earlier work) [5] | LD50 (72 h), 3D7 B2a (3D7 B2a) [µM]
1 | CC(=O)N1CCC[C@@H]1C(=O)N[C@@H](C)C(=O)N[C@@H](Cc1ccccc1)B(O)O [MPI-1] | a higher concentration of MPI-1 was needed to produce the same level of inhibition | pronounced synergistic interaction |  |  |  |  |  |  |  |  |  |  |  |  |  | 
2 | CC(C)C[C@H](NC(=O)[C@H](Cc1ccccc1)NC(=O)Cc1ccc(O)cc1)B(O)O [MPI-4] |  | pronounced synergistic interaction | 0.000181 | 41800 | ~5 | 0.000109 | 848000 | 0.1 | 0.00485 | 9960 | 487 nM and 490 nM | 0.000173 | 27200 | ~5 |  | 
3 | CC(C)C[C@H](NC(=O)[C@H](Cc1ccccc1)NC(=O)c1cnccn1)B(O)O [bortezomib, reference compound] | prevented GFP-DD degradation |  |  |  |  |  |  |  |  |  |  |  |  |  | strong synergism | 1.1 ± 0.1
